Reference: patent publication US20260207713A1, “Drug Combination Kit for Controlling Blood Sugar” (Ningbo Y Biotechology lnc., priority 2023, published 2026)

Experiments:
[1] = system: patients with type II diabetes; settings: type II diabetes patients on chemical hypoglycemic drugs, no insulin injection, 28 consecutive days; cited from earlier work
[2] = cited from earlier work
diabetic rat models = experiment: Type II diabetes rat model (high-sugar, high-fat diet plus STZ); fasting blood sugar and glycated hemoglobin after 3 months of drug intervention; format: in vivo, SPD rats
Method: A study in Aging (Albany NY). 2021 Mar. […] The inventor opted for 12-month-old male SPD rats (weighing between 540 grams and 560 grams) for the experiment. These rats were fed a high-sugar, high-fat diet (10% lard, 2.5% cholesterol, 1.0% pig bile salt, 20% sucrose, and 66.5% conventional feed). […] The diet continued for an additional 12 weeks. Finally, rats with a fasting blood sugar level exceeding 10 mmol/L were selected, and their fasting blood sugar levels were measured for 3 consecutive times every 3 days. Rats maintaining stable fasting blood sugar levels above 10 mmol/L were chosen. Each group comprised 5 animals, and a standard diet (18.0% fat, 24.0% protein, and 58.0% carbohydrates) was administered during the drug intervention period. Given that the lifespan of glycated hemoglobin is approximately 3 months, the duration of drug intervention was established at 3 months to ensure precise measurement of post-intervention glycated hemoglobin.
These ingredients are mixed evenly with unsaturated fish oil, and then encapsulated in ultra-long type No. 9 enteric-coated capsules. […] The ketoester was diluted with flavored water to achieve a 50% concentration, while the control solution consisted of flavored water only. The method of gastric gavage was employed.
After three months of medication, blood was drawn from the tail to measure fasting blood sugar and glycated hemoglobin, with results expressed as the mean.
Feed 50% ketoester solution three times daily: at 8 am, 12 pm, and 5 pm. The total daily intake was selected as 3 g/kg/day or 5 g/kg/day, as referenced in BMC Anesthesiol. 2023; 23:p43. […] The subsequent experiment utilized 50% ketoester solution at 3 g/day/kg.

[3] = 50% ketoester solution 3 g/kg/day, three times daily by gavage, diabetic rats
[4] = 50% ketoester solution 5 g/kg/day, three times daily by gavage, diabetic rats
[5] = 20 mg/kg once a day in the morning, diabetic rats

In the case of `C[C@@H](O)CCOC(=O)C[C@@H](C)O` [ketoester, (R)-3-hydroxybutyrate-(R)-1,3-butanediol ester], the Reduction in fructosamine [1] is given as 13.4%, the “Reduction in glycated hemoglobin” value [1] is given as 8.3% and the “Duration of ketogenic effect” value ([2]; oral solution) is given as 4 to 6 h. For the same molecule, the “Ketogenic effect (level reached)” value ([2]; oral solution) was “approximately 3 mM”, the “Difference in effects on fasting blood sugar and glycated hemoglobin between dosages” value (diabetic rat models; 3 g/kg/day versus 5 g/kg/day) was “no significant difference” and the “Fasting blood sugar measurement after three months” value (diabetic rat models; [3]) was 7.15 ± 0.51 mmol/L. For the same molecule, the “Glycated hemoglobin measurement after three months” value (“Glycated hemoglobin measurement” below) (diabetic rat models; [3]) was 6.82 +/− 0.34%, the “Fasting blood sugar measurement after three months” value (diabetic rat models; [4]) was 6.90 ± 0.41 mmol/L and the “Glycated hemoglobin measurement” value (diabetic rat models; [4]) was 6.75 +/− 0.42%.
For `CC(O)CC(=O)[O-].[Na+]` (stereo not drawn) [sodium 3-hydroxybutyrate, reference compound], the Ketogenic effects ([2]; early exogenous ketone) is listed as “poor ketogenic effects”.
For `Cc1ccc([C@@H]2O[C@H](CO)[C@@H](O)[C@H](O)[C@H]2O)cc1Cc1ccc(-c2ccc(F)cc2)s1` [Canagliflozin, canagliflozin, reference compound], the “Fasting blood sugar after three months” value (diabetic rat models; [5]) was 6.38 ± 0.41 mmol/L and the “Glycated hemoglobin measurement” value (diabetic rat models; [5]) was 5.63 +/− 0.42%.
